Data as given in publication PMC6691788, “Design and synthesis of phthalazine-based compounds as potent anticancer agents with potential antiangiogenic activity via VEGFR-2 inhibition” (Journal of Enzyme Inhibition and Medicinal Chemistry, 2019).

Tests used:
Assay in all cases: NCI 60 cell panel SRB screen
Type in all cases: cell-based
SF-268 = conditions: Homo sapiens
U251 = conditions: Homo sapiens, U-251
NCI-H23 = conditions: Homo sapiens
HCT-15 = conditions: Homo sapiens
A549/ATCC = conditions: Homo sapiens
HCT-116 = conditions: Homo sapiens
SK-OV-3 = conditions: Homo sapiens
UACC-257 = conditions: Homo sapiens
K-562 = conditions: Homo sapiens, K562
OVCAR-5 = conditions: Homo sapiens
SK-MEL-28 = conditions: Homo sapiens
ACHN = conditions: Homo sapiens
MDA-MB-468 = conditions: Homo sapiens
Protocol: The human tumor cell lines of the cancer-screening panel were grown in RPMI 1640 medium containing 5% fetal bovine serum and […] L-glutamine. For a typical screening experiment, cells are inoculated into 96 well microtiter plates in 100 ml at plating densities ranging from 5000 to 40,000 cells/well depending on the doubling time of individual cell lines. After cell inoculation, the microtiter plates are incubated at 37 °C, 5% CO2, 95% air and 100%
relative humidity for 24 h prior to addition of experimental drugs. After 24 h, two plates of each cell line are fixed in situ with TCA, to represent a measurement of the cell population for each cell line at the time of drug addition (Tz). Experimental drugs are dissolved in dimethyl sulfoxide at 400-fold the desired final maximum test concentration and stored frozen prior to use. At the time of drug addition, an aliquot of frozen concentrate is thawed and diluted to twice the desired final maximum test concentration with complete medium containing […] Gentamicin. Additional four, 10-fold or ½log serial dilutions are made to provide a total of five drug concentrations plus control. Aliquots of […] of these different drug dilutions are added to the appropriate microtiter wells already containing 100 ml of medium, resulting in the required final drug concentrations. Following drug addition, the plates are incubated for an additional 48 h at 37 °C, 5% CO2, 95% air, and 100% relative humidity. For adherent cells, the assay is terminated by the addition of cold TCA. Cells are fixed in situ by the gentle addition of […] of cold 50% (w/v) TCA (final concentration,10% TCA) and incubated for 60 min at 4 °C. The supernatant is discarded, and the plates are washed five times with tap water and air dried. Sulforhodamine B (SRB) solution (100 ml) at 0.4% (w/v) in 1% acetic acid is added to each well, and plates are incubated for 10 min at room temperature. After staining, unbound dye is removed by washing five times with 1% acetic acid and the plates are air dried. Bound stain is subsequently dissolved with 10 μM trizma base, and the absorbance is read on an automated plate reader at a wavelength of 515 nm. For suspension cells, the methodology is the same except that the assay is terminated by fixing settled cells at the bottom of the wells by gently adding […] of 80% TCA (final concentration, 16% TCA).
Using the seven absorbance measurements [time zero, (Tz), control growth, (C), and test growth in the presence of drug at the five concentration levels (Ti)], the percentage growth is calculated at each of the drug concentrations levels. Percentage growth inhibition is calculated as: [(Ti -Tz)/(C - Tz)] x 100 for concentrations for which Ti>/ ¼ Tz and [(Ti -Tz) / Tz] x100 for concentrations for which Ti <Tz.
Three dose response parameters are calculated for each experimental agent. Growth inhibition of 50% (GI50) is calculated from [(Ti -Tz)/(C - Tz)] x 100 =50, which is the drug concentration resulting in a 50% reduction in the net protein increase (as measured by SRB staining) in control cells during the drug incubation. The drug concentration resulting in total growth inhibition (TGI) is calculated from Ti ¼ Tz. The LC50 (concentration of drug resulting in a 50% reduction in the measured protein at the end of the drug treatment as compared to that at the beginning) indicating a net loss of cells following treatment is calculated from [(Ti - Tz) / Tz] x100 = -50. Values are calculated for each of these three parameters if the level of activity is reached; however, if the effect is not reached or is exceeded, the value for that parameter is expressed as greater or less than the maximum or minimum concentration tested.

NCI/ADR-RES = conditions: Homo sapiens
MOLT-4 = conditions: Homo sapiens
A498 = conditions: Homo sapiens
COLO 205 = conditions: Homo sapiens
HOP-62 = conditions: Homo sapiens
SF-295 = conditions: Homo sapiens
[1] = single dose 10 μM, read-out: percent cell growth promotion
[2] = 5 log dose, 48 h, read-out: LC50 (the source's name)

SMILES: Cc1nnc(Nc2ccc(NC(=O)Nc3ccc(Cl)cc3)cc2)c2ccccc12 [Compound 6e, 1–(4-Chlorophenyl)-3–(4-(4-methylphthalazin-1-ylamino)phenyl)urea]
- GI50 (SF-268; SF-268, 5 log dose): 2.57 µM
- IC (TGI) (SF-268; SF-268, 5 log dose): 7.17 µM
- CC50 (SF-268; SF-268, 5 log dose, 48 h, read-out: LC50 (the source's name)): 47 µM
- activity at 10 µM (SF-268; SF-268, single dose 10 μM, read-out: percent cell growth promotion): 48.7%
- GI50 (U251; U251, 5 log dose): 1.98 µM
- IC (TGI) (U251; U251, 5 log dose): 3.75 µM
- CC50 (U251; U251, 5 log dose, 48 h, read-out: LC50 (the source's name)): 7.07 µM
- activity at 10 µM (U251; U251, single dose 10 μM, read-out: percent cell growth promotion): 5.4%
- GI50 (NCI-H23; NCI-H23, 5 log dose): 2.38 µM
- IC (TGI) (NCI-H23; NCI-H23, 5 log dose): 6.31 µM
- CC50 (NCI-H23; NCI-H23, 5 log dose, 48 h, read-out: LC50 (the source's name)): 40.9 µM
- activity at 10 µM (NCI-H23; NCI-H23, single dose 10 μM, read-out: percent cell growth promotion): 48.8%
- GI50 (HCT-15; HCT-15, 5 log dose): 1.91 µM
- IC (TGI) (HCT-15; HCT-15, 5 log dose): 4.53 µM
- CC50 (HCT-15; HCT-15, 5 log dose, 48 h, read-out: LC50 (the source's name)): 13.9 µM
- activity at 10 µM (HCT-15; HCT-15, single dose 10 μM, read-out: percent cell growth promotion): 6.39%
- GI50 (A549/ATCC; 5 log dose): 3.24 µM
- IC (TGI) (A549/ATCC; 5 log dose): 8.59 µM
- LC50 (concentration killing 50% of cells) (A549/ATCC; 5 log dose, 48 h): 37.9 µM
- activity at 10 µM (A549/ATCC; [1]): 26.4%
- GI50 (HCT-116; HCT-116, 5 log dose): 1.86 µM
- IC (TGI) (HCT-116; HCT-116, 5 log dose): 3.59 µM
- LC50 (lethal concentration 50%) (HCT-116; HCT-116, 5 log dose, 48 h): 6.93 µM
- activity at 10 µM (HCT-116; HCT-116, single dose 10 μM, read-out: percent cell growth promotion): 7.67%
- GI50 (SK-OV-3; SK-OV-3, 5 log dose): 2.61 µM
- IC (TGI) (SK-OV-3; SK-OV-3, 5 log dose): 6.59 µM
- CC50 (SK-OV-3; SK-OV-3, 5 log dose, 48 h, read-out: LC50 (the source's name)): 30.7 µM
- activity at 10 µM (SK-OV-3; SK-OV-3, single dose 10 μM, read-out: percent cell growth promotion): 66.4%
- GI50 (UACC-257; UACC-257): 2.39 µM
- IC (TGI) (UACC-257; UACC-257, read-out: TGI): 5.3 µM
- activity at 10 µM (UACC-257; UACC-257, read-out: percent cell growth promotion): 73.8%
- GI50 (K-562; K-562, 5 log dose): 2.2 µM
- IC (TGI) (K-562; K-562, 5 log dose): 4.67 µM
- CC50 (K-562; K-562, 5 log dose, 48 h, read-out: LC50 (the source's name)): 9.92 µM
- activity at 10 µM (K-562; K-562, single dose 10 μM, read-out: percent cell growth promotion): -16.7%
- GI50 (OVCAR-5; OVCAR-5, 5 log dose): 2.1 µM
- IC (TGI) (OVCAR-5; OVCAR-5, 5 log dose): 4.99 µM
- CC50 (OVCAR-5; OVCAR-5, 5 log dose, 48 h, read-out: LC50 (the source's name)): 18.7 µM
- activity at 10 µM (OVCAR-5; OVCAR-5, single dose 10 μM, read-out: percent cell growth promotion): 72.8%
- GI50 (SK-MEL-28; SK-MEL-28): 1.63 µM
- IC (TGI) (SK-MEL-28; SK-MEL-28, read-out: TGI): 3.2 µM
- activity at 10 µM (SK-MEL-28; SK-MEL-28, read-out: percent cell growth promotion): -11.9%
- CC50 (SK-MEL-28; SK-MEL-28, 5 log dose, 48 h, read-out: LC50 (the source's name)): 6.29 µM
- GI50 (ACHN; 5 log dose): 1.84 µM
- IC (TGI) (ACHN; 5 log dose): 3.69 µM
- CC50 (ACHN; [2]): 7.41 µM
- activity at 10 µM (ACHN; [1]): 58.8%
- activity at 10 µM (MDA-MB-468; MDA-MB-468, MDA-MBA-468, single dose 10 μM, read-out: percent cell growth promotion): 6.44%
- GI50 (MDA-MB-468; MDA-MB-468, 5 log dose): 2.84 µM
- IC (TGI) (MDA-MB-468; MDA-MB-468, 5 log dose): 7.43 µM
- CC50 (MDA-MB-468; MDA-MB-468, 5 log dose, 48 h, read-out: LC50 (the source's name)): 36.2 µM
- GI50 (NCI/ADR-RES; 5 log dose): 3.63 µM
- IC (TGI) (NCI/ADR-RES; 5 log dose): 14.9 µM
- CC50 (NCI/ADR-RES; [2]): > 100 µM
- activity at 10 µM (NCI/ADR-RES; [1]): 45.1%
- GI50 (MOLT-4; MOLT-4, 5 log dose): 2.36 µM
- IC (TGI) (MOLT-4; MOLT-4, 5 log dose): 6 µM
- CC50 (MOLT-4; MOLT-4, 5 log dose, 48 h, read-out: LC50 (the source's name)): > 100 µM
- activity at 10 µM (MOLT-4; MOLT-4, single dose 10 μM, read-out: percent cell growth promotion): 9.76%
- GI50 (A498; A498, 5 log dose): 3.21 µM
- IC (TGI) (A498; A498, 5 log dose): 10.5 µM
- CC50 (A498; A498, 5 log dose, 48 h, read-out: LC50 (the source's name)): 38.5 µM
- activity at 10 µM (A498; A498, single dose 10 μM, read-out: percent cell growth promotion): 35.4%
- GI50 (COLO 205; COLO 205, 5 log dose): 2.22 µM
- IC (TGI) (COLO 205; COLO 205, 5 log dose): 5.29 µM
- CC50 (COLO 205; COLO 205, 5 log dose, 48 h, read-out: LC50 (the source's name)): 19.2 µM
- activity at 10 µM (COLO 205; COLO 205, single dose 10 μM, read-out: percent cell growth promotion): 28.2%
- GI50 (HOP-62; HOP-62, 5 log dose): 1.81 µM
- IC (TGI) (HOP-62; HOP-62, 5 log dose): 3.7 µM
- CC50 (HOP-62; HOP-62, 5 log dose, 48 h, read-out: LC50 (the source's name)): 7.56 µM
- activity at 10 µM (HOP-62; HOP-62, single dose 10 μM, read-out: percent cell growth promotion): 44.2%
- GI50 (SF-295; SF-295, 5 log dose): 2.04 µM
- IC (TGI) (SF-295; SF-295, 5 log dose): 4.21 µM
- CC50 (SF-295; SF-295, 5 log dose, 48 h, read-out: LC50 (the source's name)): 8.68 µM
- activity at 10 µM (SF-295; SF-295, single dose 10 μM, read-out: percent cell growth promotion): 4.8%
